Measurements reported in the supplement of paper PMC10721915.
± gives the standard deviation of the averaged measurements.

What was measured:
Assay in all cases: relative cell growth vs untreated control (GI, NCI-DTP normalisation with time-zero) (fraction of control growth); higher = more growth / less inhibition
Conditions in all cases: concentration of partner 0 M, treatment time: 120 h
A204 = test system: A204
Method: (§1)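 Cancer cell lines in 96-well plates were treated 48 h after seeding with M4076 (ATM inhibitor) and berzosertib (ATR inhibitor), alone or mixed, in 4-fold dilutions for 120 h. Protein was read by sulforhodamine B staining, background-subtracted and normalised NCI-DTP style to untreated control growth. Rows with one concentration equal to 0 are monotherapy.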

ASPC1 = test system: ASPC1
Method: as §1

COLO205 = test system: COLO205
Method: as §1

HT29 = test system: HT29
Method: as §1

LOVO = test system: LOVO
Method: as §1

MDAMB231 = test system: MDAMB231
Method: as §1

NCIH460 = test system: NCIH460
Method: as §1

PANC1 = test system: PANC1
Method: as §1

RDES = test system: RDES
Method: as §1

U2OS = test system: U2OS
Method: as §1

CNCc1ccc(-c2cc(-c3nc(-c4ccc(S(=O)(=O)C(C)C)cc4)cnc3N)on2)cc1 [berzosertib] + COc1cc2ncc3c(c2cc1-c1cn(C)nc1C)n(-c1c(F)cncc1OC)c(=O)n3C [M4076]
relative cell growth
Conditions	A204	ASPC1	COLO205	HT29	LOVO	MDAMB231	NCIH460	PANC1	RDES	U2OS
concentration of first compound 0.0195 µM	1.15 ± 0.11	1.3 ± 0.23	1.1 ± 0.16	1.22 ± 0.25	1.07 ± 0.22	1.06 ± 0.1	1.12 ± 0.2	1.12 ± 0.1	1.15 ± 0.026	1.07 ± 0.072
concentration of first compound 0.0781 µM	1.06 ± 0.1	1.07 ± 0.19	0.981 ± 0.15	0.613 ± 0.13	0.826 ± 0.17	1.09 ± 0.1	1.09 ± 0.2	1.27 ± 0.11	1.14 ± 0.026	0.977 ± 0.066
concentration of first compound 0.2 µM	0.623	0.344	0.622	0.113	0.211	0.976	0.607	0.892	1.01	0.906
concentration of first compound 0.313 µM	0.583 ± 0.056	0.0569 ± 0.01	0.353 ± 0.053	-0.0285 ± 0.0059	0.0258 ± 0.0054	0.775 ± 0.073	0.357 ± 0.065	0.482 ± 0.043	0.873 ± 0.02	0.9 ± 0.061
concentration of first compound 1.25 µM	-0.0148 ± 0.0015	-0.0955 ± 0.017	0.114 ± 0.017	-0.0598 ± 0.012	-0.0498 ± 0.011	0.0906 ± 0.0085	0.0867 ± 0.016	0.094 ± 0.0084	0.254 ± 0.0058	0.0428 ± 0.0032
concentration of first compound 5 µM	-0.0897 ± 0.0087	-0.077 ± 0.013	0.00456 ± 0.00065	-0.0555 ± 0.011	-0.0599 ± 0.013	-0.057 ± 0.0054	0.0406 ± 0.0074	-0.0643 ± 0.0058	-0.0925 ± 0.0021	-0.0411 ± 0.0025
